Key:
K562 = assay: Cytotoxicity against human K562 cells by MTT assay; assay type: functional, cell-based
Mus musculus = assay: Toxicity in ip dosed mouse relative to roridin A; assay type: organism-based; settings: in vivo
[1] = Toxicity in mouse CD4+ T cells assessed as induction of IL5 at 1.0 ng/ml; assay type: cell-based; settings: t-cell
[2] = Toxicity in ip dosed mouse; assay type: organism-based; settings: in vivo
[3] = Toxicity in mouse CD4+ T cells assessed as induction of IL5 at 100 ng/ml; assay type: cell-based; settings: t-cell
[4] = Toxicity in mouse CD4+ T cells assessed as induction of IL5 at 0.05 ng/ml; assay type: cell-based; settings: t-cell
[5] = Toxicity in mouse CD4+ T cells assessed as induction of IL5 at 1000 ng/ml; assay type: cell-based; settings: t-cell
[6] = Toxicity in mouse CD4+ T cells assessed as induction of IL5 at 500 ng/ml; assay type: cell-based; settings: t-cell

Row | Compound | EC50 (K562) [nM] | Activity (Mus musculus) | further results
1 | CC(=O)OC[C@]12C[C@H](OC(=O)CC(C)C)C(C)=C[C@H]1O[C@@H]1[C@H](O)[C@@H](OC(C)=O)[C@@]2(C)[C@]12CO2 [T-2 TOXIN] | 2.1 | 3 | Activity [1]: Toxic
2 | CC1=C[C@H]2O[C@@H]3[C@H](O)[C@@H](O)[C@](C)([C@@]2(CO)[C@H](O)C1=O)[C@]31CO1 [NIVALENOL] | 960 | – | LD50 [2]: 4.1 mg/kg; Activity [3]: Toxic
3 | CC(=O)OC[C@]12CCC(C)=C[C@H]1O[C@@H]1[C@H](O)[C@@H](OC(C)=O)[C@@]2(C)[C@]12CO2 [ANGUIDIN] | 2.7 | 23 | –
4 | CC1=C[C@H]2O[C@@H]3C[C@H]4OC(=O)/C=C\C=C\C(=O)OCC[C@@H](C)[C@H](O)C(=O)OC[C@@]2(CC1)[C@]4(C)[C@]31CO1 [VERRUCARIN A] | – | 1.5 | Activity [4]: Toxic
5 | CC1=C[C@H]2O[C@@H]3C[C@@H]4OC(=O)/C=C/C=C/COCC/C([C@@H](O)[C@H](C)O)=C/C(=O)OC[C@@]2(CC1)[C@]4(C)[C@]31CO1 [SATRATOXIN H] | – | 1 | –
6 | CC(=O)O[C@@H]1C[C@]2(C)[C@@]3(CO)[C@H](O)C(=O)C(C)=C[C@H]3O[C@H]1[C@@]21CO1 [3-ACETYLDEOXYNIVALENOL] | – | – | Activity [5]: Toxic
7 | CC(=O)OC[C@]12C[C@H](O)C(C)=C[C@H]1O[C@@H]1[C@H](O)[C@@H](OC(C)=O)[C@@]2(C)[C@]12CO2 [NEOSOLANIOL] | 392 | 0.5 | –
8 | CC(=O)OC[C@]12C[C@H](OC(=O)CC(C)C)C(C)=C[C@H]1O[C@@H]1[C@H](O)[C@@H](O)[C@@]2(C)[C@]12CO2 [HT-2 TOXIN] | 47.1 | 9 | –
9 | CC1=C[C@H]2O[C@@H]3[C@H](O)C[C@](C)([C@@]2(CO)[C@H](O)C1=O)[C@]31CO1 [DEOXYNIVALENOL] | 1010 | 4 | LD50 [2]: 70 mg/kg; Activity [3]: Toxic
10 | CC(=O)OC[C@]12[C@H](O)C(=O)C(C)=C[C@H]1O[C@@H]1[C@H](O)C[C@@]2(C)[C@]12CO2 [15-ACETYLDEOXYNIVALENOL] | – | – | Activity [6]: Toxic

From ChEMBL document CHEMBL1149871, “Structure and conformational dynamics of trichothecene mycotoxins” (J Nat Prod, 2008)
